Our source for the TGI values is PubChem BioAssay (NCI).

Structures are written as SMILES.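 In this assay, cells in 96-well plates receive the compound at five concentrations for 48 hours. Endpoints are linearly interpolated between the surrounding concentrations. Definition used: TGI = concentration required for complete inhibition of growth.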

Some test systems named below: MOLT-4 leukemia; PC-3 prostate; HCT-15 colon; T-47D breast; OVCAR-4 ovarian; U251 CNS; SF-539 CNS; K-562 leukemia; UACC-257 melanoma; SW-620 colon.
Common to all, as to assay: NCI anticancer screen, dose series, 48 h

On to `CC1(C)C(=O)/C(=C/c2ccccc2)C(C)(C)C1(C)C`, for which the TGI in the test with MOLT-4 leukemia, in the test on PC-3 prostate, in the test on HCT-15 colon, in the test with T-47D breast, in the test on OVCAR-4 ovarian and in the test with U251 CNS was above 100 µM in each case. For the same compound, the TGI in the test with SF-539 CNS, in the test on K-562 leukemia, in the test with UACC-257 melanoma and in the test on SW-620 colon was above 100 µM throughout.

With `O=C(Nc1cccc2ccccc12)c1cc2ccccc2oc1=O`, the TGI with MOLT-4 leukemia, in the test with PC-3 prostate, in the test with HCT-15 colon, in the test with T-47D breast, with OVCAR-4 ovarian and in the test with U251 CNS was above 100 µM each time. The TGI in the test with SF-539 CNS was 81.8 µM; in the test on K-562 leukemia, above 100 µM; in the test with UACC-257 melanoma, above 100 µM; in the test on SW-620 colon, above 100 µM.

In the case of `Cc1cc(NC(=O)NC(=O)c2ccccc2NC(=O)CN(C)C)ccc1Oc1ncc(Br)cn1`, the TGI is 59.8 µM in the test on MOLT-4 leukemia; above 100 µM in the test on PC-3 prostate; above 100 µM with HCT-15 colon; above 100 µM in the test with T-47D breast; above 100 µM in the test on OVCAR-4 ovarian; above 86.6 µM in the test with U251 CNS. Besides, the TGI in the test with SF-539 CNS is 10.6 µM; in the test on K-562 leukemia, above 57.8 µM; in the test with UACC-257 melanoma it was above 100 µM; in the test on SW-620 colon, above 100 µM.

Regarding `O=C1Nc2noc(=O)nc2NO1`, the TGI with MOLT-4 leukemia, in the test on PC-3 prostate, in the test on HCT-15 colon, in the test on T-47D breast, in the test with OVCAR-4 ovarian and with U251 CNS was above 200 µM throughout. The TGI in the test with SF-539 CNS, in the test on K-562 leukemia, with UACC-257 melanoma and in the test on SW-620 colon was above 200 µM throughout.

`O=c1c2ccc(Cl)cc2oc2c(CSc3ccccc3)cccc12`: the TGI with MOLT-4 leukemia, in the test on PC-3 prostate, in the test on HCT-15 colon, in the test with T-47D breast, in the test with OVCAR-4 ovarian and in the test on U251 CNS was above 100 µM throughout. Also, the TGI in the test with SF-539 CNS was above 60.7 µM; in the test with K-562 leukemia it was above 100 µM; in the test with UACC-257 melanoma, above 100 µM; in the test with SW-620 colon, above 31.6 µM.

As for `COc1cc2c(cc1O)C(Cc1ccc(OCc3ccccc3)c(OCc3ccccc3)c1)N(C(=O)NCCc1ccccc1)CC2` (stereo not given), the TGI in the test with MOLT-4 leukemia, in the test on PC-3 prostate, in the test with HCT-15 colon, in the test on T-47D breast, in the test on OVCAR-4 ovarian and in the test on U251 CNS was above 100 µM throughout. Also, the TGI with SF-539 CNS, in the test on K-562 leukemia, in the test on UACC-257 melanoma and with SW-620 colon was above 100 µM in each case.

With `CC(=O)O[C@H]1CC[C@@H](OC(C)=O)[C@H]2[C@H](O)[C@H](O)[C@@H]1n1c(=O)n(-c3ccccc3)c(=O)n12`, the TGI in the test on MOLT-4 leukemia, in the test with PC-3 prostate, in the test on HCT-15 colon, in the test on T-47D breast, with OVCAR-4 ovarian and in the test with U251 CNS was above 100 µM throughout. In addition, the TGI with SF-539 CNS, with K-562 leukemia, in the test with UACC-257 melanoma and in the test with SW-620 colon was above 100 µM each time.

As for `CCCCCCCCCCCC1=C(O)C(=O)C(CC2=C(O)C(=O)C(CCCCCCCCCCC)=C(O)C2=O)=C(O)C1=O`, the TGI in the test on MOLT-4 leukemia, in the test on PC-3 prostate, in the test on HCT-15 colon, in the test on T-47D breast, in the test with OVCAR-4 ovarian and with U251 CNS was above 100 µM throughout. The TGI in the test with SF-539 CNS, in the test with K-562 leukemia, with UACC-257 melanoma and in the test with SW-620 colon was above 100 µM in each case.

Regarding `CCNC(=S)N/N=C(/C)c1cccc(/C(C)=N\NC(=S)NCC)n1`, the TGI was 14.7 µM in the test with MOLT-4 leukemia; above 100 µM in the test with PC-3 prostate; above 57 µM in the test with HCT-15 colon; above 45.4 µM in the test with T-47D breast; above 100 µM in the test with OVCAR-4 ovarian; 58 µM in the test with U251 CNS. For the same compound, the TGI with SF-539 CNS was 23.7 µM; in the test on K-562 leukemia, 26.3 µM; in the test with UACC-257 melanoma it was 31.6 µM; with SW-620 colon, above 100 µM.

For `COC1=C(OC)C(=O)C(Cc2c(Cl)nc3sccn23)=C(C)C1=O`, the TGI in the test on MOLT-4 leukemia was 4.17 µM; in the test on PC-3 prostate it was 28.5 µM; in the test with HCT-15 colon, 27.2 µM; in the test with T-47D breast, 17.8 µM; in the test with OVCAR-4 ovarian, 18.8 µM; in the test with U251 CNS, 25.1 µM. The TGI in the test with SF-539 CNS came to 25 µM; with K-562 leukemia, 34.1 µM; in the test on UACC-257 melanoma it was 16.1 µM; in the test with SW-620 colon, 30.4 µM.

As for `O=C(O)[C@H]1NC[C@H]2C(Br)=NO[C@@H]12`, the TGI in the test with MOLT-4 leukemia, with PC-3 prostate, with HCT-15 colon, with T-47D breast, with OVCAR-4 ovarian and with U251 CNS was above 100 µM each time. Also, the TGI in the test on SF-539 CNS, with K-562 leukemia, in the test with UACC-257 melanoma and in the test on SW-620 colon was above 100 µM throughout.

For the compound `Cc1ccc(S(=O)(=O)OCCN(CCOS(=O)(=O)c2ccc(C)cc2)c2ccc(C=O)cc2)cc1`, the TGI in the test with MOLT-4 leukemia is above 100 µM; in the test with PC-3 prostate, above 100 µM; with HCT-15 colon, above 100 µM; in the test on T-47D breast, above 100 µM; with OVCAR-4 ovarian it was 44.3 µM; with U251 CNS it was 71.5 µM. Moreover, the TGI in the test on SF-539 CNS is above 100 µM; in the test with K-562 leukemia, above 100 µM; in the test on UACC-257 melanoma, 61 µM; in the test with SW-620 colon, above 100 µM.

As for `C[C@H]1CCC/C=C/[C@@H]2C[C@H](OC3OC(CO)C(O)C(O)C3O)C[C@H]2[C@H](O)/C=C/C(=O)O1` (stereo not given in full), the TGI in the test on MOLT-4 leukemia, with PC-3 prostate, with HCT-15 colon, in the test on T-47D breast, in the test on OVCAR-4 ovarian and in the test with U251 CNS was above 100 µM in each case. Further, the TGI in the test on SF-539 CNS was above 100 µM; in the test with K-562 leukemia, above 100 µM; in the test with UACC-257 melanoma it was 78.9 µM; with SW-620 colon it was above 100 µM.

Regarding `Cc1ccc(S(=O)(=O)N/N=c2/sc3ccccc3n2C)cc1`, the TGI in the test with MOLT-4 leukemia, in the test on PC-3 prostate, in the test with HCT-15 colon, in the test on T-47D breast, in the test with OVCAR-4 ovarian and with U251 CNS was above 100 µM throughout. The TGI in the test on SF-539 CNS, with K-562 leukemia, with UACC-257 melanoma and in the test with SW-620 colon was above 100 µM each time.

With `COc1ccc(S(=O)(=O)NC(CCC(=O)NC(N)=O)C(=O)NC(N)=O)cc1` (stereo not given), the TGI in the test on MOLT-4 leukemia, with PC-3 prostate, in the test on HCT-15 colon, in the test with T-47D breast, in the test on OVCAR-4 ovarian and with U251 CNS was above 100 µM throughout. In addition, the TGI with SF-539 CNS, in the test on K-562 leukemia, in the test on UACC-257 melanoma and with SW-620 colon was above 100 µM in each case.

As to `Cc1ccc(C(=O)Nc2ccc(CP(=O)(O)O)cc2CP(=O)(O)O)cc1N`, the TGI in the test on MOLT-4 leukemia, in the test on PC-3 prostate, with HCT-15 colon, with T-47D breast, in the test with OVCAR-4 ovarian and with U251 CNS was above 100 µM throughout. For the same compound, the TGI in the test with SF-539 CNS, with K-562 leukemia, in the test with UACC-257 melanoma and in the test with SW-620 colon was above 100 µM throughout.

Consider `CN(C)c1cccc2c(S(=O)(=O)NCCN)cccc12`, for which the TGI with MOLT-4 leukemia, in the test with PC-3 prostate, in the test with HCT-15 colon, in the test on T-47D breast, in the test with OVCAR-4 ovarian and in the test with U251 CNS was above 100 µM throughout. The TGI in the test on SF-539 CNS, in the test with K-562 leukemia, in the test with UACC-257 melanoma and with SW-620 colon was above 100 µM throughout.

In the case of `[N-]=[N+]=CC(=O)C1CCN(c2ccccc2)C1=O` (stereo not given), the TGI in the test on MOLT-4 leukemia, in the test on PC-3 prostate, in the test on HCT-15 colon, in the test on T-47D breast, in the test on OVCAR-4 ovarian and in the test on U251 CNS was above 10 µM throughout. For the same compound, the TGI in the test with SF-539 CNS, with K-562 leukemia, in the test with UACC-257 melanoma and with SW-620 colon was above 10 µM throughout.

For `Cc1nnc(SCc2nc(C#N)c(C#N)nc2CSc2nnc(C)s2)s1`, the TGI in the test with MOLT-4 leukemia stood at 12.9 µM; with PC-3 prostate, 41.1 µM; with HCT-15 colon it was 26.4 µM; in the test with T-47D breast, 17.3 µM; with OVCAR-4 ovarian, 31.5 µM; in the test with U251 CNS, 37.5 µM. In addition, the TGI is 40.9 µM with SF-539 CNS, above 52.3 µM in the test with K-562 leukemia, 28.3 µM in the test with UACC-257 melanoma and 15.6 µM with SW-620 colon.

Regarding `CC1=NC(=N)N=C(C)C1N=Nc1ccc2nc(C)[nH]c2c1` (stereo not given), the TGI in the test on MOLT-4 leukemia, in the test with PC-3 prostate, in the test with HCT-15 colon, in the test with T-47D breast, with OVCAR-4 ovarian and in the test with U251 CNS was above 100 µM in each case. For the same compound, the TGI in the test with SF-539 CNS, with K-562 leukemia, in the test on UACC-257 melanoma and in the test on SW-620 colon was above 100 µM each time.

For the compound `CC1(C)CCC[C@@]2(C)C1CC[C@@]1(CO)O[C@H](C3=CC(=O)OC3O)C[C@H]12` (stereo not given in full), the TGI in the test on MOLT-4 leukemia stood at 11.5 µM; with PC-3 prostate, 29.5 µM; in the test on HCT-15 colon, 23.5 µM; in the test on T-47D breast, 25.8 µM; in the test with OVCAR-4 ovarian, 35.2 µM; in the test on U251 CNS it was 28.5 µM. For the same compound, the TGI in the test on SF-539 CNS is above 59.8 µM; with K-562 leukemia, 63.9 µM; with UACC-257 melanoma, 35 µM; in the test on SW-620 colon, 22.3 µM.

For `O=C(N/N=C/c1ccccc1)c1c(F)c(F)c(F)c(F)c1F`, the TGI in the test with MOLT-4 leukemia, with PC-3 prostate, in the test with HCT-15 colon, in the test on T-47D breast, in the test on OVCAR-4 ovarian and with U251 CNS was above 100 µM each time. Further, the TGI in the test on SF-539 CNS, in the test with K-562 leukemia, in the test with UACC-257 melanoma and in the test on SW-620 colon was above 100 µM in each case.

For the compound `COC(=O)[C@H](C)NC(=O)[C@H](NS(=O)(=O)c1nc2ccccc2s1)c1ccccc1`, the TGI in the test on MOLT-4 leukemia was above 100 µM; with PC-3 prostate, above 100 µM; in the test on HCT-15 colon, above 100 µM; with T-47D breast, 32.4 µM; in the test with OVCAR-4 ovarian, above 100 µM; in the test on U251 CNS, 41 µM. For the same compound, the TGI was 30.4 µM in the test on SF-539 CNS, above 100 µM in the test on K-562 leukemia, 26.3 µM with UACC-257 melanoma and above 100 µM in the test on SW-620 colon.
